Experimental data reported in US7919481B2, “Inositol pyrophosphates, and methods of use thereof” (NormOxys, Inc., priority 2002, dated 2011).
Where two headings read alike, the source gives them in different places.

What was measured:
[1] = molecular target: stripped hemoglobin (Homo sapiens, UniProt P68871); conditions: cited from earlier work
[2] = Chemical hydrolysis of IHP-pyrophosphate at alkaline pH (31P-NMR); format: physicochemical
Description: Experiments designed to test IHP-pyrophosphate's resistance to chemical hydrolysis were conducted. ITPP N,N-dimethyl-cyclohexylammonium salt solutions were adjusted at pH 8.66, 10.20, 12.05 and 13.30. In order to avoid any damage to the NMR tubes due to the highly alkaline solutions, all samples were checked using ^31P-NMR at different time intervals against an external Ph3PO/DMSO solution. This method also avoided concentrating the samples and redissolving them in a deuterated solvent, which may have led to changes in the results. […] Observing this stability, we exposed the pH=13.30 sample to heat at 60° C. for 6 h. […] After 22 h at the same temperature, hydrolysis was only 19%. Facing this extreme stability to chemical hydrolysis we concentrated to dryness both solutions of pH 10.20 and 13.30 and dissolved them in D2O.

[3] = tested on: baker's yeast; format: in vitro ADME; conditions: pH 4.6
Description: ITPP was dissolved in a buffer solution of a pH 4.6 and heated in the presence of baker's yeast for 12 h at 45° C. Non selective hydrolysis of approximately 25% occurred.

[4] = 1-octanol/water partition coefficient Kow; format: physicochemical; conditions: after equilibration at 30 mM
Description: Partition coefficients relate to the distribution of a solute between two immiscible liquid phases and are defined as the ratios of concentrations (or molar fraction) of the distributed solute.
The partition coefficients for our compounds, Kow=[ITPP]1-octanol/[ITPP]water, were measured after equilibration at a concentration of 30 mM, close to the typical concentration employed for biological evaluations.

[5] = tested on: C57BL/6 mice; test: Tolerability of intraperitoneal injection in mice; format: in vivo; conditions: concentration of (up to) 120 mM
[6] = molecular target: porcine hemoglobin (Sus scrofa, UniProt P02067); test: In vitro P50 of porcine free hemoglobin with effector; format: biochemical, pig; conditions: porcine free hemoglobin 2.5 mM, effector 2.5 mM, 1:1; for P50 mm Hg: control 20.4, 19.9
Description: (§1) Two further effectors, kf133 and kf137, were tested in vitro for P50 shifts with porcine hemoglobin and whole blood. The compounds were well soluble. As usual, pH was adjusted to ˜7.0 and effector solution (2.5 mM) and hemoglobin (2.5 mM) were mixed at a 1:1 ratio. Whole blood and the effector solution were mixed at iso-osmolarity at pH=7. P50 values were measured as described in the previous experiments.

[7] = tested on: porcine whole blood; test: In vitro P50 of porcine whole blood with effector (iso-osmolar); format: cell-based, pig; conditions: for P50 mm Hg: control 33.5
Description: as §1

[8] = Toxicity, general statements on the biological experiments; format: in vivo; conditions: general statement
[9] = Solubility of effector solutions; format: physicochemical; conditions: pH ~7.0
Description: as §1

[10] = tested on: human whole blood; test: In vitro P50 in whole blood after incubation with effector; format: cell-based; conditions: effector 60 mM
Description: (§2) As usual, pH's for the compound-solutions were adjusted to ˜7.0, osmolarities for both solutions were determined (325-373 mOsM) prior to effectors, and whole blood volumes at 1:1 ratios were incubated.

[11] = tested on: mouse whole blood; test: as above; format: cell-based; conditions: effector 60 mM
Description: as §2

[12] = tested on: pig whole blood; test: as above; format: cell-based; conditions: effector 60 mM
Description: as §2

[13] = tested on: whole blood; test: In vitro incubation of whole blood of three species, summary statements; format: cell-based, human, mouse and pig; conditions: whole blood of human, mouse and pig, 60 mM
Description: as §2

[14] = tested on: circulating RBC; test: P50 shift of circulating RBC after (intraperitoneal) injection in mice; conditions: maximum; for shift in the Hb-O2 dissociation curve: IP injection
[15] = porcine whole blood, iso-osmolarity, pH=7

Chain of porcine hemoglobin (P01965 whole entry partner): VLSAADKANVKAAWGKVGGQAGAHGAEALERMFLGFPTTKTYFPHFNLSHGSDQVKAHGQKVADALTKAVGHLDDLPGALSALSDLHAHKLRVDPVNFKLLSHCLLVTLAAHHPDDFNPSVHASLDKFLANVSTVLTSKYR
Chain of porcine hemoglobin (P02067 2-147 limits assumed): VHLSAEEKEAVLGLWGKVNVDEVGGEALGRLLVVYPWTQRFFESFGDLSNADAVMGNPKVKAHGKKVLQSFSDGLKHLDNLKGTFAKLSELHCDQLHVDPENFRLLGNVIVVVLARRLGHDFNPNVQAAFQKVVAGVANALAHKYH
Chain of stripped hemoglobin (P69905 2-142 partner limits assumed): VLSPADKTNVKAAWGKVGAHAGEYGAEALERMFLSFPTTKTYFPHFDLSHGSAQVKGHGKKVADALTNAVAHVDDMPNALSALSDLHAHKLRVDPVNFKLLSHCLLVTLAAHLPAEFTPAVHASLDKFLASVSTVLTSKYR
Chain of stripped hemoglobin (P68871 2-147 limits assumed): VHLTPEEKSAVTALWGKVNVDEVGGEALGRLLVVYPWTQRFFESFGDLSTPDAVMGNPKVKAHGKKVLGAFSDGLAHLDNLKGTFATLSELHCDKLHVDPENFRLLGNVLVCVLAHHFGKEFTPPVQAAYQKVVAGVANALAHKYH

Molecule: O=C(O)[C@@H](COP(=O)(O)O)OP(=O)(O)O [2,3-Diphosphoglycerate, 2,3-diphosph-D-glyceric acid]
- O2 half-saturation pressure P(O2)(½) of stripped hemoglobin ([1]; pH 7.4, 25° C.): 12.0 mm Hg
- O2 half-saturation pressure P(O2)(½) of stripped hemoglobin ([1]; pH 7.4, 37° C.): 23.7 mm Hg

Molecule: N,N-Dimethyl cyclohexyl ammonium Salt of Myo-inositol 1,6:2,3:4,5-Tripyrophosphate
- hydrolysis (changes in 31P-NMR) ([2]; pH 8.66, 10.20, 12.05, after 3 days): No changes were observed
- change after concentration to dryness ([2]; pH 10.20, redissolved in D2O): remained unchanged
- hydrolysis ([2]; pH=13.30, 60° C. for 6 h): 13%
- hydrolysis ([2]; pH=13.30, 60° C., after 22 h): 19%
- hydrolysis ([2]; pH=13.3, after 3 days): 7%
- change after concentration to dryness ([2]; pH=13.30, redissolved in D2O): completely converted to the IHP open form sodium salt

Molecule: O=P1(O)OC2C3OP(=O)(O)OP(=O)(O)OC3C3OP(=O)(O)OP(=O)(O)OC3C2OP(=O)(O)O1 (stereo not shown) [ITPP, inositol tripyrophosphate]
- non selective enzymatic hydrolysis [3]: approximately 25%

Molecule: NC1CCCCCCC1.NC1CCCCCCC1.NC1CCCCCCC1.NC1CCCCCCC1.NC1CCCCCCC1.NC1CCCCCCC1.O=P1(O)OP(=O)(O)O[C@H]2[C@H](O1)[C@@H]1OP(=O)(O)OP(=O)(O)O[C@@H]1[C@H]1OP(=O)(O)OP(=O)(O)O[C@H]21 [cyclooctylammonium ITPP salt]
- Kow=[ITPP]1-octanol/[ITPP]water [4]: 0.462

Molecule: IHP monopyrophosphate hexasodium salt [kf133]
- tolerability in mice [5]: well tolerated
- P50 Increase % [6]: 143%
- P50 mm Hg [6]: 48.5 mm Hg
- P50 Increase % [7, 15]: 14.5%
- P50 mm Hg [7, 15]: 38.4 mm Hg
- toxicity / tolerability [8]: non-toxic
- solubility [9]: well soluble

Molecule: Hexanoy-IHP NN-DMCHA salt [kf137]
- tolerability in mice [5]: well tolerated
- P50 Increase % [6]: 120%
- P50 mm Hg [6]: 45.1 mm Hg
- lysis of the RBC ([7]; porcine whole blood in vitro): Noticeable lysis
- P50 mm Hg [7, 15]: 51.5 mm Hg
- solubility [9]: well soluble

Molecule: IHP Cholesteryoxy Carbonyl Hepta N,N-Dimethyl Cyclohexyl Ammonium Salt [kf96]
- P50 Increase % ([10]; 1:1): 27%
- P50 mm Hg ([10]; 1:1, control 22.1): 28 mm Hg
- P50 Increase % ([11]; 1:1): 20%
- P50 mm Hg ([11]; 1:1, control 36.7): 43.9 mm Hg
- P50 Increase % ([12]; 1:1): 27%
- P50 mm Hg ([12]; 1:1, control 32.2): 41.1 mm Hg
- right shift in the Hb-O2 dissociation curve, all blood samples [13]: 27%
- shift in the Hb-O2 dissociation curve ([14]; 30 mM): up to 17%
- shift in the Hb-O2 dissociation curve ([14]; 60 mM): up to 24%

Molecule: IHP Cholesteryoxy Carbonyl Hepta N,N-Dimethyl Cyclohexyl Ammonium Salt [kf16.4]
- right shift in the P50 ([14]; ip, 6 animals): up to 18%

Molecule: NC1CCCCCC1.NC1CCCCCC1.NC1CCCCCC1.NC1CCCCCC1.NC1CCCCCC1.NC1CCCCCC1.O=P1(O)OC2C3OP(=O)(O)OP(=O)(O)OC3C3OP(=O)(O)OP(=O)(O)OC3C2OP(=O)(O)O1 (stereo not shown) [cycloheptylammonium ITPP salt]
- Kow=[ITPP]1-octanol/[ITPP]water [4]: 0.0121
